Values quoted from earlier work, collected in patent US20050272741A1, “Novel methods of treatment for Fontan patients with protein losing enteropathy” (priority 2004, published 2005).

Tested on: mesenteric bed
Conditions: pretreatment with Viagra, high dose Norepinephrine

In the case of `CCCc1nn(C)c2c(=O)[nH]c(-c3cc(S(=O)(=O)N4CCN(C)CC4)ccc3OCC)nc12` [Viagra, Sildenafil], the “Mesenteric relaxation / constriction of the mesenteric bed” value is given as “even high dose Norepinephrine fails to constrict the mesenteric bed”.
